Data reported in US20080226565A1, “Anticariogenic Proteins & Peptides & Saccharides” (priority 2004, published 2008).

Experiments:
[1] = In-vivo: residual protection, radiated samples after 5 days in oral cavity treated with acetic acid; design: species or system human
Excerpt: N: number of tooth samples A: hardness(μm) after radiation and 5 days residence in the oral cavity B: hardness after radiation and 5 days in the oral cavity and treatment with acetic acid

Streptococcus spp. = test: Susceptibility (MIC), agar dilution, Streptococcus spp.; type: cell-based; details: 6 from 9 Streptococcus strains
Experimental: The investigations included more than hundred strains isolated from the oral cavity: : anaerobes, microaerophilic bacteria, aerobes, Streptococcus spp. and yeast like fungi. The microorganisms were isolated from saliva, mucosal membrane, gingival pockets and caries decay. The susceptibility (MIC) of bacteria and yeastlike fungi were determined by means of plate dilution technique in agar.
The investigated samples were dissolved in sterile distilled water (immediately before the experiment) to obtain the following concentrations: 3.5, 1.7, 0.8, 0.4 and 0.2 mg/ml and were added into appropriate agar. The plates were inoculated using a Steers multipoint inoculator. Inoculum contained 10^6 CFU/spot. […]
Anaerobes. The susceptibility of bacteria was determined by means of the agar dilution methods with Brucella agar supplemented with 5% defibrinated sheep's blood, menadione and hemin. […] The susceptibility of bacteria was determined by means of the agar dilution methods with Brucella agar supplemented with 5% sheep's blood. […] The susceptibility of bacteria was determined by means of the agar dilution methods with Mueller-Hinton agar supplemented with 5% sheep's blood. […] The susceptibility to investigated samples was determined by means of the plate dilution technique in Mueller-Hinton agar. […]

[2] = In-vivo: radiated tooth samples treated with protector, 5 days in the oral cavity, Knoop hardness; design: species or system human; details: for delta: change of hardness (increase of depth of penetration): radiation + 5 days in oral cavity, 0.1% fluoride or 4% bisphosphonate e-polylysine with CaCl2 and KH2PO4
Excerpt: A device is constructed that can contain up to 6 experimental tooth samples for positioning in the oral cavity. […] The construction of the experimental tooths samples is outlined in chapter C.2.“Results; in-vivo experiments”. In the oral cavity, the tooth samples are positioned in the device in such a way that the enamel surfaces are subjected to physical contact with the tongue and are submerged in saliva. […] In experiments where the device is residing a long time period in the oral cavity (5 days and more), a metal network is positioned just above the surface of the experimental teeth, in order to provide support for the bacteria and stimulate it's growth path. It is also possible to measure the residual protection competence by removing the tooth samples from the oral cavity at the end of the selected residence time and treating them with acid under laboratory conditions.
The device was positioned after the lower jaw in the oral cavity for a period of five days. After removal from the oral cavity, the samples where cleaned and the hardness was measured.
Tooth samples have been cut in horizontal slices (thickness: 0.3 to 1 mm) with a Leitz 1600 tooth cutter with horizontal cutting blade; the slices are cut manually (with a bore) into small tooth samples that contain a small part of the original tooth surface. The tooth sample is positioned in a small plastic tube, that has been cut from a long plastic tube with 6 mm external diameter. The length of the tube is 3 to 6 mm. The inner part of the tube is filled with a polymer that hardens under light (Photoclearfil Bright; Kuraray). The tooth sample is positioned in the soft polymer inside the tube, in such a way that the original tooth surface is just surfacing above the tube. Finally the polymer is hardened with a light source. The tooth surface is polished with Struers silicon carbid paper (800-4000) and the hardness is measured 5 times on each of the samples under the Letiz Wetzlar microscope (weight on needle: 50 p). Tooth samples with a maximum average depth of penetration of 43 μm are retained for use in the oral cavity.
Tooth samples have been subjected to a radiation dose that is equal to the amount that is given to patients with oral cancer (20 Gray) and have been sterilized. […] A drop of the solution was positioned on the tooth surface and allowed to reside for a period of 30 minutes at 37 C.; the procedure was repeated after removal of the drop with pressured air. Finally the drop was removed, the tooth was dried on air and fixed to the device. In total six tooth samples have been fixed to the device and positioned in the oral cavity after the lower jaw. It remained in the oral cavity for a period of 5 days (day and night). After completion of the required residence time, the device was removed from the oral cavity and the experimental teeth where separated from the device and washed. The hardness was measured according to the Knoop method, six times on each of the tooth samples.
B: the stage at which the hardness of the tooth surface has been measured with the Knoop method. (before the treatment; after radiation and before addition of protector formulation to the surface; after addition of protector to the surface of the tooth and after residing five days in the oral cavity).
B: the stage at which the hardness of the tooth surface has been measured with the Knoop method.

Substance: bisphosphonylated epsilon-polylysine [bisphosphonylated e-polylysine]
- C: B−A (increase of depth of penetration by acid) ([1]; acetic acid 0.1N, 30 min, 37° C. after 5 days in oral cavity): 3.9 μm
- B: hardness after radiation and 5 days in the oral cavity and treatment with acetic acid ([1]; acetic acid 0.1N, pH 5, 30 min, 37° C.): 44.5 μm
- A: hardness after radiation and 5 days residence in the oral cavity ([1]; samples later treated with acid): 40.6 μm
- concentration inhibiting growth (MIC) (Streptococcus spp.): 1700 µg/mL
- Mean hardness (depth of penetration) ([2]; after protector and 5 days oral cavity, 0.1% NaF or 4% bisphosphonate e-polylysine with CaCl2 and KH2PO4): 41.97 μm
- Mean hardness (depth of penetration) ([2]; after radiation, before addition of protector (baseline of group)): 41.02 μm
- delta: change of hardness ([2]; after radiation, before addition of the formulation): 0.15 μm
- delta: change of hardness (increase of depth of penetration) ([2]; listed as bisphosphonate e-polylysine): 1.10 μm
- delta: change of hardness (increase of depth of penetration) ([2]; listed as bisphosphonylated epsilon-polylysine): 1.1 μm
- Mean hardness (depth of penetration) ([2]; start, before treatment (baseline of group)): 40.87 μm
